From patent US12428406B2 (PMV Pharmaceuticals, Inc., priority 2019, dated 2025)

Biological target: T1, p53 Y220C (Homo sapiens, UniProt P04637, Y220C)
T1 construct: The recombinant protein was a truncation mutant containing only amino acids 94-312 of p53; made in house; host or cells: E. coli
Assay: In vitro DNA binding activity assay (HTRF / TR-FRET): stabilization of p53 Y220C and increase of its DNA binding activity
Format: biochemical
Details: recombinant His-tagged p53 Y220C DNA binding domain (aa 94-312), biotin-labeled consensus DNA, incubated at 27° C. or 29° C. for 60 min
Method in brief: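 Stabilization of the mutant is inferred from increased binding of His-tagged p53 Y220C to a biotin-labeled consensus DNA, detected by HTRF with europium-streptavidin and APC-anti-His antibody. The concentration giving a 50% rise over compound-free binding is reported as SC150.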

T1 sequence (P04637 94-312, change not shown): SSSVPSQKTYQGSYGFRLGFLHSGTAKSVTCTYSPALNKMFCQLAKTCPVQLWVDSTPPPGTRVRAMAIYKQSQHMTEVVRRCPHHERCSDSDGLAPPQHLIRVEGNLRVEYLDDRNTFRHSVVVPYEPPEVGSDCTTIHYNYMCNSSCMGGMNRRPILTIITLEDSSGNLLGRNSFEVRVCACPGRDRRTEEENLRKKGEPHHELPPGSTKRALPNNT

SMILES | SC150 (concentration of the compound required to increase the DNA binding activity by 50%)
CNC(=O)c1ccc(NCC#Cc2cc3c(N[C@H]4CC[C@@H](N(C)CCOC)CC4)cccc3n2CC(F)(F)F)c(OC)c1 [Compound 152A, 3-methoxy-N-methyl-4-{[3-(4-{[(1S,4S)-4-[(2-methoxyethyl) (methyl)amino]cyclohexyl]amino}-1-(2,2,2-trifluoroethyl)-1H-indol-2-yl)prop-2-yn-1-yl]amino}benzamide] | + (+ = 0 μM ≤ SC150 < 0.05 μM)
CCNC(=O)c1ccc(NCC#Cc2cc3c(N[C@H]4CC[C@H](N(C)CCOC)CC4)cccc3n2CC(F)(F)F)c(OC)c1 [Compound 153A, N-ethyl-3-methoxy-4-((3-(4-((4-((2-methoxyethyl)(methyl)amino)cyclohexyl)amino)-1-(2,2,2-trifluoroethyl)-1H-indol-2-yl)prop-2-yn-1-yl)amino)benzamide] | + (+ = 0 μM ≤ SC150 < 0.05 μM)
COCCN(C)[C@H]1CC[C@H](Nc2cccc3c2cc(C#CCNc2ccc(S(C)(=O)=O)cc2OCF)n3CC(F)(F)F)CC1 [Compound 155A, (1R,4R)—N^1-(2-(3-((2-(fluoromethoxy)-4-(methylsulfonyl)phenyl)amino)prop-1-yn-1-yl)-1-(2,2,2-trifluoroethyl)-1H-indol-4-yl)-N^4-(2-methoxyethyl)-N^4-methylcyclohexane-1,4-diamine] | + (+ = 0 μM ≤ SC150 < 0.05 μM)
COCCN(C)[C@H]1CC[C@H](Nc2cccc3c2cc(C#CCNc2ccc(S(N)(=O)=O)cc2OC)n3CC(F)(F)F)CC1 [Compound 160A, 3-methoxy-4-{[3-(4-{[(1R,4R)-4-[(2-methoxyethyl)(methyl)amino]cyclohexyl]amino}-1-(2,2,2-trifluoroethyl)-1H-indol-2-yl)prop-2-yn-1-yl]amino}benzene-1-sulfonamide] | + (+ = 0 μM ≤ SC150 < 0.05 μM)
CCN(CC)[C@H]1CC[C@H](Nc2cccc3c2cc(C#CCNc2ccc(S(C)(=O)=O)cc2OC)n3CC(F)(F)F)CC1 [Compound 162A, (1R,4R)-N^1,N^1-diethyl-N4-(2-{3-[(4-methanesulfonyl-2-methoxyphenyl)amino]prop-1-yn-1-yl}-1-(2,2,2-trifluoroethyl)-1H-indol-4-yl)cyclohexane-1,4-diamine] | + (+ = 0 μM ≤ SC150 < 0.05 μM)
COCCN(C)[C@H]1CC[C@H](Nc2cccc3c2cc(C#CCNc2ccc(S(N)(=O)=O)cc2OCC#N)n3CC(F)(F)F)CC1 [Compound 164A, 3-(cyanomethoxy)-4-{[3-(4-{[(1R,4R)-4-[(2-methoxyethyl) (methyl)amino]cyclo-hexyl]amino}-1-(2,2,2-trifluoroethyl)-1H-indol-2-yl)prop-2-yn-1-yl]amino}benzene-1-sulfonamide] | + (+ = 0 μM ≤ SC150 < 0.05 μM)
COCCN(C)[C@H]1CC[C@@H](Nc2cccc3c2cc(C#CCNc2ccc(S(N)(=O)=O)cc2OCC#N)n3CC(F)(F)F)CC1 [Compound 165A, 3-(cyanomethoxy)-4-{[3-(4-{[(1S,4S)-4-[(2-methoxyethyl)(methyl)amino]cyclohexyl]amino}-1-(2,2,2-trifluoroethyl)-1H-indol-2-yl)prop-2-yn-1-yl]amino}benzene-1-sulfonamide] | + (+ = 0 μM ≤ SC150 < 0.05 μM)
COCCN(CCOC)[C@H]1CC[C@H](Nc2cccc3c2cc(C#CCNc2ccc(S(N)(=O)=O)cc2OCF)n3CC(F)(F)F)CC1 [Compound 166A, 3-(fluoromethoxy)-4-{[3-(4-{[(1R,4R)-4-[bis(2-methoxyethyl)amino]cyclohexyl]amino}-1-(2,2,2-trifluoro-ethyl)-1H-indol-2-yl)prop-2-yn-1-yl]amino} benzene-1-sulfonamide] | + (+ = 0 μM ≤ SC150 < 0.05 μM)
COCCN(C)[C@H]1CC[C@H](Nc2cccc3c2cc(C#CCNc2ccc(S(N)(=O)=O)cc2OCF)n3CC(F)(F)F)CC1 [Compound 168A, 3-(fluoromethoxy)-4-{[3-(4-{[(1R,4R)-4-[(2-methoxyethyl)(methyl)amino]cyclohexyl]amino}-1-(2,2,2-trifluoro-ethyl)-1H-indol-2-yl)prop-2-yn-1-yl]amino}benzene-1-sulfonamide] | + (+ = 0 μM ≤ SC150 < 0.05 μM)
COc1cc(C(N)=O)ccc1NCC#Cc1cc2c(N[C@H]3CC[C@H](N4CCOCC4)CC3)cccc2n1CC(F)(F)F [Compound 170A, 3-methoxy-4-{[3-(4-{[(1R,4R)-4-(morpholin-4-yl)cyclohexyl]amino}-1-(2,2,2-trifluoroethyl)-1H-indol-2-yl)prop-2-yn-1-yl]amino}benzamide] | + (+ = 0 μM ≤ SC150 < 0.05 μM)
COc1cc(C(N)=O)ccc1NCC#Cc1cc2c(N[C@H]3CC[C@@H](N4CCOCC4)CC3)cccc2n1CC(F)(F)F [Compound 171A, 3-methoxy-4-{[3-(4-{[(1S,4S)-4-(morpholin-4-yl)cyclohexyl]amino}-1-(2,2,2-trifluoroethyl)-1H-indol-2-yl)prop-2-yn-1-yl]amino}benzamide] | + (+ = 0 μM ≤ SC150 < 0.05 μM)
CNC(=O)c1ccc(NCC#Cc2cc3c(N[C@H]4CC[C@H](N5CCOCC5)CC4)cccc3n2CC(F)(F)F)c(OC)c1 [Compound 172A, 3-methoxy-N-methyl-4-{[3-(4-{[(1R,4R)-4-(morpholin-4-yl)cyclohexyl]amino}-1-(2,2,2-trifluoroethyl)-1H-indol-2-yl)prop-2-yn-1-yl]amino}benzamide] | + (+ = 0 μM ≤ SC150 < 0.05 μM)
CNC(=O)c1ccc(NCC#Cc2cc3c(N[C@H]4CC[C@@H](N5CCOCC5)CC4)cccc3n2CC(F)(F)F)c(OC)c1 [Compound 173A, 3-methoxy-N-methyl-4-{[3-(4-{[(1S,4S)-4-(morpholin-4-yl)cyclohexyl]amino}-1-(2,2,2-trifluoro-ethyl)-1H-indol-2-yl)prop-2-yn-1-yl]amino}benzamide] | + (+ = 0 μM ≤ SC150 < 0.05 μM)
COc1cc(S(C)(=O)=O)ccc1NCC#Cc1cc2c(N[C@H]3CC[C@H](N4CCOCC4)CC3)cccc2n1CC#N [Compound 174A, 2-(2-{3-[(4-methane-sulfonyl-2-methoxy-phenyl)amino]prop-1-yn-1-yl}-4-{[(1R,4R)-4-(morpholin-4-yl)cyclo-hexyl]amino}-1H-indol-1-yl)acetonitrile] | + (+ = 0 μM ≤ SC150 < 0.05 μM)
CNC(=O)c1ccc(NCC#Cc2cc3c(N[C@H]4CC[C@H](N5CCOCC5)CC4)cccc3n2CCF)c(OC)c1 [Compound 175A, 4-({3-[1-(2-fluoro-ethyl)-4-{[(1R,4R)-4-(morpholin-4-yl)cyclohexyl]amino}-1H-indol-2-yl]prop-2-yn-1-yl}amino)-3-methoxy-N-methylbenzamide] | ++ (++ = 0.05 μM ≤ SC150 < 0.1 μM)
COc1cc(S(C)(=O)=O)ccc1NCC#Cc1cc2c(N[C@H]3CC[C@H](N4CCOCC4)CC3)cccc2n1CCF [Compound 176A, 1-(2-fluoroethyl)-2-{3-[(4-methane-sulfonyl-2-methoxy-phenyl)amino]prop-1-yn-1-yl}-N-[(1R,4R)-4-(morpholin-4-yl)cyclo-hexyl]-1H-indol-4-amine] | + (+ = 0 μM ≤ SC150 < 0.05 μM)
CNC(=O)c1ccc(NCC#Cc2cc3c(N[C@H]4CC[C@H](N5CCOCC5)CC4)cccc3n2CC#N)c(OC)c1 [Compound 177A, 4-({3-[1-(cyanomethyl)-4-{[(1R,4R)-4-(morpholin-4-yl)cyclohexyl]amino}-1H-indol-2-yl]prop-2-yn-1-yl}amino)-3-methoxy-N-methyl-benzamide] | + (+ = 0 μM ≤ SC150 < 0.05 μM)
CCCn1c(C#CCNc2ccc(S(C)(=O)=O)cc2OC)cc2c(N[C@H]3CC[C@H](N4CCOCC4)CC3)cccc21 [Compound 178A, 2-{3-[(4-methane-sulfonyl-2-methoxy-phenyl)amino]prop-1-yn-1-yl}-1-propyl-N-[(1R,4R)-4-(morpholin-4-yl)cyclohexyl]-1H-indol-4-amine] | + (+ = 0 μM ≤ SC150 < 0.05 μM)
COc1cc(S(C)(=O)=O)ccc1NCC#Cc1cc2c(N[C@H]3CC[C@H](N4CCOCC4)CC3)cccc2n1CC(C)C [Compound 179A, 2-{3-[(4-methane-sulfonyl-2-methoxy-phenyl)amino]prop-1-yn-1-yl}-1-(2-methyl-propyl)-N-[(1R,4R)-4-(morpholin-4-yl)cyclohexyl]-1H-indol-4-amine] | ++ (++ = 0.05 μM ≤ SC150 < 0.1 μM)
COc1cc(S(C)(=O)=O)ccc1NCC#Cc1cc2c(N[C@H]3CC[C@H](N4CCOCC4)CC3)cccc2n1CC(F)F [Compound 180A, 1-(2,2-difluoroethyl)-2-{3-[(4-methane-sulfonyl-2-methoxy-phenyl)amino]prop-1-yn-1-yl}-N-[(1R,4R)-4-(morpholin-4-yl)cyclo-hexyl]-1H-indol-4-amine] | + (+ = 0 μM ≤ SC150 < 0.05 μM)
CCNC(=O)c1ccc(NCC#Cc2cc3c(N[C@H]4CC[C@H](N5CCOCC5)CC4)cccc3n2CC(F)(F)F)c(OC)c1 [Compound 183A, N-ethyl-3-methoxy-4-{[3-(4-{[(1R,4R)-4-(morpholin-4-yl)cyclohexyl]amino}-1-(2,2,2-trifluoroethyl)-1H-indol-2-yl)prop-2-yn-1-yl]amino}benzamide] | + (+ = 0 μM ≤ SC150 < 0.05 μM)
